One block for each compound: values may come before it. The source made the active and inactive calls. The calls are words filed in the database; no cut-off is given here.
Key:
[1] = tested on: HepG2; assay: Cytotoxicity against human HepG2 cells assessed as inhibition in cell growth; format: functional, cell-based
[2] = tested on: HCT-116; assay: Cytotoxicity against human HCT-116 cells assessed as inhibition in cell growth; format: functional, cell-based
[3] = tested on: MCF7; assay: Cytotoxicity against human MCF7 cells assessed as inhibition in cell growth; format: functional, cell-based
[4] = tested on: PC-3; assay: Cytotoxicity against human PC-3 cells assessed as inhibition in cell growth; format: functional, cell-based
[5] = species: Sus scrofa; assay: Induction of porcine brain tubulin polymerization at 3 uM by fluorescence-based tubulin polymerization assay
[6] = tested on: MCF7; assay: Cytotoxicity against human MCF7 cells assessed as inhibition in cell growth incubated for 72 hrs by MTT assay; format: functional, cell-based; settings: MCF7, 72 h
[7] = tested on: HT-29; assay: Cytotoxicity against human HT-29 cells assessed as inhibition in cell growth incubated for 72 hrs by MTT assay; format: functional, cell-based; settings: HT-29, 72 h
[8] = tested on: A2780; assay: Cytotoxicity against human A2780 cells assessed as inhibition in cell growth incubated for 72 hrs by MTT assay; format: functional, cell-based; settings: A2780, 72 h
[9] = Cytotoxicity against human MRC5 cells assessed as inhibition in cell growth incubated for 72 hrs by MTT assay; format: toxicity, cell-based
[10] = Selectivity index, ratio of IC50 for cytotoxicity against human MRC5 cells to IC50 for cytotoxicity against human MCF7 cells; settings: MRC5 cells versus MCF7 cells
[11] = Selectivity index, ratio of IC50 for cytotoxicity against human MRC5 cells to IC50 for cytotoxicity against human HT-29 cells; settings: MRC5 cells versus HT-29 cells
[12] = Selectivity index, ratio of IC50 for cytotoxicity against human MRC5 cells to IC50 for cytotoxicity against human A2780 cells; settings: MRC5 cells versus A2780 cells
[13] = molecular target: T1, Prostaglandin G/H synthase 1 (Ovis aries, UniProt P05979); assay: Inhibition of ovine COX-1
T1 sequence (P05979 whole entry): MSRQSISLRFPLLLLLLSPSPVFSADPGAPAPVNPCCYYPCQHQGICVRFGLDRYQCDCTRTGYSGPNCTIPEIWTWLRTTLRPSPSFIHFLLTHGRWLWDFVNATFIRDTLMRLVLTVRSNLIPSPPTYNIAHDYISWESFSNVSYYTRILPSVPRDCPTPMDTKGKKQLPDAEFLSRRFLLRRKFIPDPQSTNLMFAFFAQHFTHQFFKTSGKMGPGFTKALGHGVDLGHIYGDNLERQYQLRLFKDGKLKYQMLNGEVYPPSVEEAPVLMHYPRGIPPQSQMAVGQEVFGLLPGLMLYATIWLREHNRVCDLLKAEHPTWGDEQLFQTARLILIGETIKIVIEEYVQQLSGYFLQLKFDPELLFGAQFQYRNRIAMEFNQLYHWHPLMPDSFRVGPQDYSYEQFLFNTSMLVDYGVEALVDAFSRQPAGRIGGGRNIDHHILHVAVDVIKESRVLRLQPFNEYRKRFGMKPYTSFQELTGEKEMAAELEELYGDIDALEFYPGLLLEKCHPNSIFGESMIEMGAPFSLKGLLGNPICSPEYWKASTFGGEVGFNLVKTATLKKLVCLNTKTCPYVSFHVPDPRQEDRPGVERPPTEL

[14] = tested on: Rattus norvegicus; assay: Antiinflammatory activity against carrageenan-induced paw edema Sprague-Dawley rat model assessed as inhibition of paw edema by measuring edema thickness at 50 mg/kg, po measured after 1 hr (reference value: 0.71 +/- 0.03 mm); format: functional
[15] = tested on: Rattus norvegicus; assay: Antiinflammatory activity against carrageenan-induced paw edema Sprague-Dawley rat model assessed as inhibition of paw edema by measuring edema thickness at 50 mg/kg, po measured after 3 hrs (reference value: 1.41 +/- 0.13 mm); format: functional
[16] = tested on: Rattus norvegicus; assay: Antiinflammatory activity against carrageenan-induced paw edema Sprague-Dawley rat model assessed as inhibition of paw edema by measuring edema thickness at 50 mg/kg, po measured after 5 hrs (reference value: 1.39 +/- 0.11 mm); format: functional
[17] = tested on: Rattus norvegicus; assay: Antiinflammatory activity against carrageenan-induced paw edema Sprague-Dawley rat model assessed as inhibition of inflammation at 50 mg/kg, po after 1 hr relative to control; format: functional; set-up: scale not given: the % may be the effect or the level left
[18] = tested on: Rattus norvegicus; assay: Antiinflammatory activity against carrageenan-induced paw edema Sprague-Dawley rat model assessed as inhibition of inflammation at 50 mg/kg, po after 3 hrs relative to control; format: functional; set-up: scale not given: the % may be the effect or the level left
[19] = tested on: Rattus norvegicus; assay: Antiinflammatory activity against carrageenan-induced paw edema Sprague-Dawley rat model assessed as inhibition of inflammation at 50 mg/kg, po after 5 hrs relative to control; format: functional; set-up: scale not given: the % may be the effect or the level left
[20] = tested on: THP-1; assay: Cytotoxicity against human THP-1 cells assessed as inhibition in cell growth; format: functional, cell-based

SMILES: CC(=O)c1ccc(NC(=O)COc2ccc(C3SCC(=O)N3c3ccccc3)cc2)cc1 (stereo not given)
IC50 [1]: 18.2 µM | IC50 [2]: 18.2 µM | IC50 [3]: 18.2 µM | IC50 [4]: 18.2 µM

Activity [5]: Active
SMILES: CC(=O)O[C@H]1C(=O)[C@@]2(C)[C@H]([C@H](OC(=O)c3ccccc3)[C@]3(O)C[C@H](OC(=O)[C@H](O)[C@@H](NC(=O)c4ccccc4)c4ccccc4)C(C)=C1C3(C)C)[C@]1(OC(C)=O)CO[C@@H]1C[C@@H]2O

IC50 [13]: 4.55 µM
SMILES: Cc1ccc(NC(=O)COc2ccc(N3C(=O)CSC3c3ccccc3)cc2)cc1 (stereo not given)
IC50 [6]: 1790 nM | IC50 [7]: 2110 nM | IC50 [8]: 1630 nM | IC50 at 72 h [9]: 2850 nM | selectivity ratio at 72 h [10]: 1.59 | selectivity ratio at 72 h [11]: 1.35 | selectivity ratio at 72 h [12]: 1.75 | Activity [14]: 0.57 mm | Activity [15]: 0.67 mm | Activity [16]: 0.69 mm | Activity [17]: 15.3% | Activity [18]: 32.7% | Activity [19]: 47.48%

SMILES: COc1ccc(N2C(=O)CSC2c2cc(OC)c(OC)c(OC)c2)cc1 (stereo not given)
IC50 [20]: 1210 nM

Reference: ChEMBL document CHEMBL5625227, “Discovery and optimization of 2,3-diaryl-1,3-thiazolidin-4-one-based derivatives as potent and selective cytotoxic agents with anti-inflammatory activity” (Eur J Med Chem, 2023)
